The results in this text go back to patent US20140045807A2, “THE USE OF 3-METHOXY-PREGNENOLONE FOR THE PREPARATION OF A DRUG FOR TREATING A TRAUMATIC BRAIN INJURY” (priority 2004, published 2014).

In data set [1] the target is purified tubulin and MAP2 (Homo sapiens, UniProt P11137). The data set can be described thus: MAP2-induced polymerization of microtubules in vitro (optical density at 345 nm). It is filed as biochemical. Conditions: for Activity (increase in optical density at 345 nm): purified tubulin and MAP2, 37° C., GTP; for effect on microtubule polymerization: MAP2 and tubulin with GTP, 37° C. As for the experimental part:
Purified MAP2 and tubulin are mixed in the presence of GTP at 4° C. in a spectrophotometer cuvette. Polymerization is induced by heating at 37° C. and is followed by the increase in optical density (OD) which indicates the quantity of polymers formed.
This in vitro test measures the effect of molecules on the MAP2-induced polymerization of microtubules. This polymerization occurs when MAP2 proteins and tubulin are mixed at adequate concentrations in the presence of GTP. It is accompanied by an increase in optical density measured at 345 nm for 15 to 30 minutes with a UNICON spectrophotometer thermostated at 37° C. (FIG. 1).
Activity is measured by the increase in optical density at 345 nm of a mixture of purified tubulin and MAP2, incubated at 37° C. in the presence of GTP.

The target of another data set is MAP2 (Homo sapiens, UniProt P11137). The data set can be described thus: Binding (affinity) by displacement of PREG-^3H. As for the experimental part: Binding (affinity) is measured by the displacement of PREG-^3H.
Data set [2] deals with PC12 cells. In words: Neuritic growth / sprouting in PC12 cells with NGF. As to conditions: 30 μM, after 3 days of culture, with NGF. It is filed as cell-based, rat.
Description: Each molecule was tested in three culture wells. Measurements were taken for 200 cells per well using Scion Image software.
Neurite (neurite) length was measured for 200 cells per well after 2, 5, and 8 days of culture.
Stimulation of neuritic sprouting is conducted on PC12 cells differentiated in the presence of NGF (10 ng/ml) and the steroid being tested (30 μM) for 3 days. For each condition, the average length of the longest 200 neurites in each cell is measured simultaneously for 3 cultures.
For data set [3], the system named is PC12 cells. In words: Retraction of neurites induced by nocodazole. The data set is classed as cell-based, rat. As to conditions: pretreated one hour at 30 μM, nocodazole 15 minutes. The source says: FIG. 5: Retraction of neurites (neurites) induced by nocodazole.
Nocodazole is a microtubule depolymerizing agent. Its addition to PC12 cell cultures, differentiated in the presence of NGF, causes neurites to retract as a result of the depolymerization of their microtubules.

The subject of data set [4] is human neuroblastoma HS-SY5Y cells. The data set can be described thus: Cytotoxicity of okadaic acid, steroid protection (LDH release). The data set is classed as cell-based. Conditions: 24 hours, simultaneous addition, increasing concentrations. From the text:
FIG. 6: Toxicity of okadaic acid. Steroid protection. […] Cell death was indicated by the release of lactate dehydrogenase (LDH) in the culture medium.
Okadaic acid is a protein phosphatase inhibiter. Thus, the hyperphosphorylation of tau protein is implicated in microtubule depolymerization and in human neuroblastoma HS-SY5Y cell death. The exposure of SY5Y cell cultures to okadaic acid does in fact cause significant cell death.
For orientation: Release of lactate dehydrogenase indicates damage to the cell membrane.

The next data set concerns PC12 cell line. In words: Cellular toxicity test. It is filed as cell-based, rat. As to conditions: concentrations as high as solubility limits (approximately 50 μM). As to the method:
Cellular toxicity tests are carried out routinely on the PC12 cell line.

Data set [5] deals with transgenic mice expressing the longest human tau protein isoform. In words: RotaRod test in transgenic mice expressing the longest human tau protein isoform. It is filed as in vivo, mouse. As to conditions: subcutaneous implant releasing 0.38 mg of steroid per day for 90 days. The source says: FIG. 8: Effect of molecule 43B on the motor incoordination of transgenic mice expressing the longest isoform of human tau protein in their neurons. […] The maximum speed of rotation of the RotaRod drum before the […] falls is a measurement of motor coordination (higher values correspond to a better treatment effect).
In order to evaluate the therapeutic potential of 43B to treat Alzheimer-type neurodegenerative diseases, a homozygous transgenic line of mice, such as described by Götz (EMBO J. 1995; 14(7):1304-13), can be used.
These mice express the longest human tau protein isoform. They present symptoms of neurological dysfunction expressed as muscular weakness and a reduction in motor coordination which correlate histologically with the appearance of abnormal neurites and hyperphosphorylated tau proteins as is seen in Alzheimer's disease. This pathological phosphorylation decreases the affinity of tau for microtubules and favors its aggregation.
A breeding program was undertaken at Bicêtre and genotyping made it possible to select mice homozygous for the transgene. […] These implants released 0.38 mg of steroid per day for 90 days. The progression of motor incoordination was followed by repeated RotaRod tests.
On the technique in general: In the rotarod test animals must keep their balance on a rotating rod.

Data set [6] relates to α-tubulin forms (Tyr/Glu-Tub, Acet-Tub) in rat hippocampus. The data set can be described thus: Microtubule dynamics in rat hippocampus after single administration. Conditions: 10 mg/kg subcutaneously, 3 h following injection. The data set is classed as in vivo. The source says:
Mean±SEM, n=6 per group. **p<0.01, *[…] vs sesame oil.
The effects produced by neurosteroids were compared with those produced by acute administration of the antidepressant drug fluoxetine (selective serotonin reuptake inhibitor; SSRI).

Data set [7] concerns Sprague Dawley rats in the FST. In words: Forced swimming test (FST). It is filed as in vivo, rat. As to conditions: 10 mg/kg subcutaneously, 24, 5, 1 h before testing. The source says: (A) 3-methoxy-PREG (43B) decreased rat immobility in the FST showing antidepressant activity. Results are expressed as mean±SEM (n=6-14). One-way ANOVA: Treatment (F5, 46: 4.30 P<0.01). ***P<0.001, *P<0.05 vs. water and sesame oil (Fisher LSD test). […] Results are expressed as mean±SEM (n=6-14). One-way ANOVA: Treatment (F5, 46: 3.57 P<0.01). **P<0.01, *P<0.05 vs. water and sesame oil (Fisher LSD test). […] One-way ANOVA: Treatment (F5, 46: 3.57 P<0.01). **P<0.01, *P<0.05 vs. water and sesame oil (Fisher LSD test).
Drugs were administered following the traditional dosing regimen used in the FST consisting of three injections: 24, 5, 1 h before testing.
The FST is currently the most widely used animal model for assessing depression related behavior and antidepressant drug activity in rodents (Cryan et al., Neubiorev. 2005). Rats are placed in an inescapable cylinder of water where they develop an immobile posture believed to reflect a “depressive”-like state. The time rats spend immobile is decreased by drugs exerting antidepressant activity.
Additional behaviors can be detected in the FST; namely, climbing and swimming. It has been shown that swimming behavior is sensitive to SSRIs such as fluoxetine whereas climbing is sensitive to norepinephrine re-uptake inhibitors (NRI) such as desipramine.

In data set [8] the target is T1, human progesterone receptor(PR) (Homo sapiens, UniProt P06401).
T1 construct: expressed in transfected cells; host or cells: HEK293T
T1 sequence (P06401 1-933): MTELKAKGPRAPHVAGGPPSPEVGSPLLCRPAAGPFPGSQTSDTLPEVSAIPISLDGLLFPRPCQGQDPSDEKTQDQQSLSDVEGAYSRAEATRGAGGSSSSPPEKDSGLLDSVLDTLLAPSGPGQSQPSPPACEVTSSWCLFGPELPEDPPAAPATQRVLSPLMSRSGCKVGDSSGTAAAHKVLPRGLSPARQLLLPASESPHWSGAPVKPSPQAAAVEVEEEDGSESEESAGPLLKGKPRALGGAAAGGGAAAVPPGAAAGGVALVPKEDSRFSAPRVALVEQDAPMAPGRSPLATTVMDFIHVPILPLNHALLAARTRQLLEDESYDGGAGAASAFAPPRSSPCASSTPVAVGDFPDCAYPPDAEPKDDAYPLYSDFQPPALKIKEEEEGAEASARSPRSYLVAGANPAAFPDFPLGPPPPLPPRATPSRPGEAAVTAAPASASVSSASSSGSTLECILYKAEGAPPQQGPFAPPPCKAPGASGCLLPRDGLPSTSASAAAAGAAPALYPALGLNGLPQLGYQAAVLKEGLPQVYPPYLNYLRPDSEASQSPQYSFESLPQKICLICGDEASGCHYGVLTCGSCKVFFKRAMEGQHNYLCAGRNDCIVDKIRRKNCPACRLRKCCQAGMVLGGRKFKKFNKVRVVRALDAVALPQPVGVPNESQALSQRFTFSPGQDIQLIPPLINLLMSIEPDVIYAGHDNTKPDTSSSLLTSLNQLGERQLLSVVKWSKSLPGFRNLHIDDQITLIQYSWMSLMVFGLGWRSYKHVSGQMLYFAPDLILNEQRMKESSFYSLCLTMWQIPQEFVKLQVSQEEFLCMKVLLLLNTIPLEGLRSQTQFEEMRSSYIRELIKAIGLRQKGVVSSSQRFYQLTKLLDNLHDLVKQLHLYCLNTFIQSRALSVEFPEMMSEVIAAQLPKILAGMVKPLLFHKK
In words: Test of progesterone receptor agonist activity (luciferase transactivation, HEK293T). The data set is classed as cell-based. Conditions: increasing amounts, 24 hours. As to the method: The main experimental setting used is the following: HEK293T cells were transiently transfected, using calcium phosphate precipitation technology, with expression vectors pSG5hPR (which permits expression of human progesterone receptor(PR)), pFC31-luc (contains the luciferase gene under the control of the MMTV promoter, which is in turn activated by binding of a progestin to progesterone receptor) and pcbetagal (which permits expression of betagalactosidase), and cultured during 24 hours with increasing amounts of various compositions: • 1. […] Test of progesterone receptor […] activity: transfected cells were cultured with progesterone (1 nM) and increasing amounts of RU486 (a well-known progesterone receptor antagonist) or 3-methoxy-pregnenolone. • With this setting, a compound with progesterone receptor antagonist activity competes with progesterone for the occupation of progesterone receptor and results in a progressive loss of transactivation activity when the amount of this compound is increased compared to progesterone.

The mark [9] stands for this setting: 40 μM, compared to control kinetics with solvent alone.

MAP2, sequence (P11137 whole entry): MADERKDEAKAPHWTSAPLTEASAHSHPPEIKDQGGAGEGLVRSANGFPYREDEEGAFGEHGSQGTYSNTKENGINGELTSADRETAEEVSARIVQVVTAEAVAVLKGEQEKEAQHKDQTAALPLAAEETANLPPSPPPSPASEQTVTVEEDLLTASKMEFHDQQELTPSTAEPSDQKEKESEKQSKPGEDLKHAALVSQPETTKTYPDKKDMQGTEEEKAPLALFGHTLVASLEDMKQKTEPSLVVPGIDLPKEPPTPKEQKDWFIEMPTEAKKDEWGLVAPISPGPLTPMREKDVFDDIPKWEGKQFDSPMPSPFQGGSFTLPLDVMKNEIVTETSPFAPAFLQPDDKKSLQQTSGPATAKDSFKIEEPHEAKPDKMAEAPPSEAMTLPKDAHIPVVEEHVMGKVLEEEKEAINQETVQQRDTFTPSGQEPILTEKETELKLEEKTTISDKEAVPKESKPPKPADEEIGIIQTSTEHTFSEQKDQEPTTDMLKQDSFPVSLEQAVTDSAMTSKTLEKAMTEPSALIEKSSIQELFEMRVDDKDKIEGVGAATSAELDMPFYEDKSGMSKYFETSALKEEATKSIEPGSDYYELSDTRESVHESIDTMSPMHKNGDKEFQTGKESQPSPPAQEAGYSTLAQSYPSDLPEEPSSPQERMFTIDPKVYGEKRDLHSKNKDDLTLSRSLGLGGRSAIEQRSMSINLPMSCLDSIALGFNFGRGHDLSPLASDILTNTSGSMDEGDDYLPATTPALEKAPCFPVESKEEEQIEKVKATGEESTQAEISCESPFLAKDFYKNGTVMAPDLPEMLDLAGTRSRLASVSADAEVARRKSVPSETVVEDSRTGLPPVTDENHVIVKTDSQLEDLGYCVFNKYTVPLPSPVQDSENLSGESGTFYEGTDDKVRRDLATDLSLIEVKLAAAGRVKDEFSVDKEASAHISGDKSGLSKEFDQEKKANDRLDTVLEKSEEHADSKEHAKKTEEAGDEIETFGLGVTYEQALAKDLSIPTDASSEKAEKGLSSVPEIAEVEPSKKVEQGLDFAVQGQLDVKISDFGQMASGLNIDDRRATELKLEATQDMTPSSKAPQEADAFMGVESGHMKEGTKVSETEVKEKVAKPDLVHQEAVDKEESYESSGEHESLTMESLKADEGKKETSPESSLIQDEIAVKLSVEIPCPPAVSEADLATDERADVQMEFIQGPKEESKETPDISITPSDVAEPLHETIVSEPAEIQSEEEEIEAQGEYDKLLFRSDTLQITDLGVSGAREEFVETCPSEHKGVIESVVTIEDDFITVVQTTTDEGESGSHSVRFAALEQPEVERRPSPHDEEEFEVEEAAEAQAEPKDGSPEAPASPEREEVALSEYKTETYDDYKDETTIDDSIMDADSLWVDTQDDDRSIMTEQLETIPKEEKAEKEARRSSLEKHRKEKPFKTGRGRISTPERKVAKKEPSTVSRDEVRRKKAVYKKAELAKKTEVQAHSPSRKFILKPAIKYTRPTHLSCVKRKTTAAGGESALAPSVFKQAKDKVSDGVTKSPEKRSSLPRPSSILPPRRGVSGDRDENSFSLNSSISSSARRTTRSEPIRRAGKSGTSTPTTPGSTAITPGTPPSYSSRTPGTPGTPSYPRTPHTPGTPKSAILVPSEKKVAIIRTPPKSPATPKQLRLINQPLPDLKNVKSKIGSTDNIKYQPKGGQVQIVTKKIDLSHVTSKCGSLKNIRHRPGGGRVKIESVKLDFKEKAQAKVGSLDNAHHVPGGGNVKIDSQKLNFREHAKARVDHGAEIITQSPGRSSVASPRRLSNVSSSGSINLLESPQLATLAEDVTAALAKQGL
purified tubulin and MAP2, sequence (P11137 whole entry): as above

As for `CC(=O)[C@H]1[C@H](C)C[C@H]2[C@@H]3CC[C@H]4C[C@@H](O)CC[C@]4(C)[C@H]3CC[C@@]21C` [3β-hydroxy-5α-pregnane-20-one-16α-methyl], the “Activity (increase in optical density at 345 nm)” value in data set [1] was 53% of PREG. For the same molecule, the “Affinity (index of binding)” value on MAP2 is recorded as 57% of PREG.
In the same order, the values of `CO[C@H]1CC[C@@]2(C)[C@@H](CC[C@@H]3[C@@H]2CC[C@]2(C)[C@@H](C(C)=O)CC[C@@H]32)C1` [3β-methoxy-5α-pregnane-20-one] are 10% of PREG and 87% of PREG.
On the same counts, the results for `CO[C@H]1CC[C@@]2(C)C(CCC3C2CC[C@@]2(C)C3CC[C@@H]2[C@@H](C)O)C1` (stereo partly drawn) [3β-methoxy-5α-pregnane-20β-ol] are 65% of PREG and 65% of PREG.
As to `CO[C@H]1CC[C@@]2(C)C(=CC[C@H]3C4=CC[C@H](C(C)=O)[C@@]4(C)CC[C@@H]32)C1` [3β-methoxy-pregna-5,14-diene-20-one], the “Activity (increase in optical density at 345 nm)” value in [1] is 50% of PREG. For the same molecule, the “Affinity (index of binding)” value on MAP2 is 102% of PREG.
In the same order, the values of `CO[C@H]1CC[C@@]2(C)C(=CC[C@@H]3[C@@H]2CC[C@@]2(C)[C@H]3CC[C@@]2(C(C)=O)C(Cl)Cl)C1` [3β-methoxy-pregna-5-ene-20-one-17α-dichloromethyl] are 113% of PREG and 53% of PREG.
Turning to `CC(=O)[C@H]1CC[C@H]2[C@@H]3CC=C4C[C@@H](O)CC[C@]4(C)[C@H]3CC[C@]12C` [PREG, Pregnenolone], in [1] (setting [9]), the “Lag time of microtubule polymerization” value is given as “decreased”; the “polymerization rate and quantity of microtubules” value is “clearly increase”. In [1], the “effect on microtubule polymerization” value is “activates microtubule polymerization” and the “Activity (increase in optical density at 345 nm)” value was 100% of PREG. Further, the “increase in the average length of the neurites” value with PC12 cells [2] is on record as 60%. Further, the “resistance of neurites to nocodazole” value in the data set on PC12 cells [3] was “makes the neurites resistant to nocodazole”. The “cell death caused by okadaic acid (LDH release)” value in [4] is “Cell death is decreased”. Also, the cellular toxicity entry in the data set with PC12 cell line was “do not demonstrate toxicity”. The “motor dysfunction (RotaRod)” value in [5] is recorded as “Only the 3-methoxy-PREG had a beneficial effect”. Moreover, the “Acet-Tub (marker of stable microtubules)” value in data set [6] is reported as “significantly decreased”. For the same molecule, in [7], the “rat climbing behavior in the FST” value is listed as “not changed” and the “rat swimming in the FST” value is “significantly increased”.
In the case of `CC(=O)[C@@]12C[C@@H]1C[C@H]1[C@@H]3CC=C4C[C@@H](O)CC[C@]4(C)[C@H]3CC[C@@]12C` [PREG-16α,17α-methylene], the “Activity (increase in optical density at 345 nm)” value in data set [1] is recorded as 49% of PREG. Further, the “Affinity (index of binding)” value on MAP2 is 62% of PREG.
As to `CC(=O)[C@H]1[C@H](C)C[C@H]2[C@@H]3CC=C4C[C@@H](O)CC[C@]4(C)[C@H]3CC[C@@]21C` [PREG-16α-methyl], the “Activity (increase in optical density at 345 nm)” value in data set [1] was 70% of PREG. Besides, at MAP2, the “Affinity (index of binding)” value is on record as 80% of PREG.
On the same counts, the results for `CC(=O)[C@H]1[C@@H](C)C[C@H]2[C@@H]3CC=C4C[C@@H](O)CC[C@]4(C)[C@H]3CC[C@@]21C` [PREG-16β-methyl] are 67% of PREG and 63% of PREG.
In the same order, the values of `CC(=O)O[C@H](C)[C@H]1CC[C@H]2[C@@H]3CC=C4C[C@@H](O)CC[C@]4(C)[C@H]3CC[C@]12C` [Pregna-5-ene-3β,20β-diol-20-acetate] are 108% of PREG and 60% of PREG.
Regarding `CNCCC(Oc1ccc(C(F)(F)F)cc1)c1ccccc1` (stereo not shown) [fluoxetine], in [6], the “Acet-Tub (marker of stable microtubules)” value is reported as “tendency to increase” and the “Tyr/Glu-Tub ratio (index of microtubule dynamics)” value was “did not change”.
Regarding `CC(=O)[C@H]1CC[C@H]2[C@@H]3CCC4=CC(=O)CC[C@]4(C)[C@H]3CC[C@]12C` [progesterone, reference compound], the “effect on microtubule polymerization” value in data set [1] was “do not stimulate polymerization”. Also, in [8], the “progesterone receptor agonist (transactivation) activity” value was “permits a transactivation activity”.
PREG-16α,17α-epoxy: the “Activity (increase in optical density at 345 nm)” value in data set [1] was 54% of PREG. Moreover, on MAP2, the “Affinity (index of binding)” value is listed as 41% of PREG.
As to “pregnenolone sulfate [reference compound]”, in data set [1], the “effect on microtubule polymerization” value was “do not stimulate polymerization”.
